Test results from patent US20090023163A1, “Method of Measuring Enzyme Activity and Method of Evaluating Compound” (priority 2005, published 2009).

Tests used:
Type in all cases: biochemical
[1] = biological target: T1, hLCE (human long chain fatty acyl elongase) (Homo sapiens, UniProt Q9H5J4); assay: Measuring LCE activity using N-Tag-hACBP (SPA); conditions: yeast microsomal sample of hLCE, 40 μM long chain fatty acid CoA, 60 μM malonyl-CoA, 37° C. 2 hours, FIG. 1
T1 construct: made in house; host or cells: Pichia pastoris (yeast), microsomal sample
T1 sequence (Q9H5J4 1-265): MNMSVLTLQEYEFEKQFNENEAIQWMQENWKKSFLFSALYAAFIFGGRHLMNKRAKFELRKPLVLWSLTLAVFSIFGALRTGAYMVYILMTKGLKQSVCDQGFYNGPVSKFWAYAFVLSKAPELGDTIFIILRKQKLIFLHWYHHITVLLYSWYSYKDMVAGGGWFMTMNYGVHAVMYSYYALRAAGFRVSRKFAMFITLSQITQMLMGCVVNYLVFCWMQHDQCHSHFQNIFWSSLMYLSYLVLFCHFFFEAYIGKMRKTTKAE
Procedure: An assay buffer solution (100 mM sodium chloride, 100 mM Tris buffer solution, pH 6.5) containing the above-mentioned yeast microsomal sample, 1 μM rotenone (manufactured by Sigma), 1 mM NADPH (reduced nicotinamide adenine dinucleotide phosphate, manufactured by Sigma), 20 μM fatty acid-free bovine serum albumin (manufactured by Sigma), 40 μM long chain fatty acid CoA (manufactured by Sigma), and 50,000 dpm of 60 μM malonyl-CoA (manufactured by Sigma, Muromachi Yakuhin Kagaku) was incubated at 37° C. for 2 hours in a 96-well Opti-plate (Packard), and then, 0.25% octyl-beta-glucoside was added thereto to stop the reaction.
(§1) Subsequently, 2 μg of a human acyl-CoA-binding protein tagged with a His tag at the N terminus and 500 μg of SPA resin (PVT copper His-Tag SPA Beads, manufactured by Amersham) were added thereto, and the resulting mixture was incubated at 37° C. for 30 minutes.
The solution after incubation was centrifuged at 3,000 rpm, and an activity was measured using a Top Count (Packard). Here, in order to evaluate a specific activity, an expression vector in which hLCE was not cloned was transfected into a host yeast, Pichia pastris by the electroporation method, whereby a transformed yeast was obtained. […]

[2] = biological target: T2, hElovl-3 (human elongase of very long chain fatty acids-like 3) (Homo sapiens, UniProt Q9HB03); assay: Measuring activity of hElovl-3 using N-Tag-hACBP (SPA); conditions: HEK293 microsomal sample of hElovl-3, 40 μM long chain fatty acid CoA, 60 μM malonyl-CoA, 37° C. 2 hours, FIG. 2
T2 construct: made in house; host or cells: HEK293, microsomal sample
T2 sequence (Q9HB03 1-270): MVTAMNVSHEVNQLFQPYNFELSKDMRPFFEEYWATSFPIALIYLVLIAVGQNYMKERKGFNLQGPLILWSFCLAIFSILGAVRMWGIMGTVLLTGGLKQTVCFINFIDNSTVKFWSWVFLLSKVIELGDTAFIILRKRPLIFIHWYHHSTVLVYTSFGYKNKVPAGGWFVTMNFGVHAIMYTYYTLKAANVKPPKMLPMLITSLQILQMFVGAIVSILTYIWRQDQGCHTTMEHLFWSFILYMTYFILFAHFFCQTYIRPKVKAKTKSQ
Procedure: (§2) An assay buffer solution (100 mM sodium chloride, 100 mM Tris buffer solution, pH 6.5) containing the cell microsomal sample of hElovl-3 or hElovl-1 obtained by the above-mentioned preparation method, 1 μM rotenone (manufactured by Sigma), 1 mM NADPH (reduced nicotinamide adenine dinucleotide phosphate, manufactured by Sigma), 20 μM fatty acid-free bovine serum albumin (manufactured by Sigma), 40 μM long chain fatty acid CoA (manufactured by Sigma, manufactured by Avanti), and 50,000 dpm of 60 μM malonyl-CoA (manufactured by Sigma, Muromachi Yakuhin Kagaku) was incubated at 37° C. for 2 hours in a 96-well Opti-plate (Packard), and then, 0.25% octyl-beta-glucoside was added thereto to stop the reaction.
as §1, with “to the reaction solution,” for “thereto,”, “minutes, followed by centrifugation at 3,000 rpm, and an activity was measured using a Top Count (Packard).” for “minutes.”
(§3) In order to evaluate a specific activity, an expression vector in which either enzyme was not cloned was transfected into a host cell, HEK293 by the host cationic lipid method, and comparison was carried out with the microsomal sample obtained by a standard method from the expressing cell.

[3] = biological target: T3, hElovl-1 (human elongase of very long chain fatty acids-like 1) (Homo sapiens, UniProt Q9BW60); assay: Measuring activity of hElovl-1 using N-Tag-hACBP (SPA); conditions: HEK293 microsomal sample of hElovl-1, 40 μM long chain fatty acid CoA, 60 μM malonyl-CoA, 37° C. 2 hours, FIG. 3
T3 construct: implied by vector pCMV-Tag2B, own knowledge) (N); made in house; host or cells: HEK293, microsomal sample
T3 sequence (Q9BW60 1-279): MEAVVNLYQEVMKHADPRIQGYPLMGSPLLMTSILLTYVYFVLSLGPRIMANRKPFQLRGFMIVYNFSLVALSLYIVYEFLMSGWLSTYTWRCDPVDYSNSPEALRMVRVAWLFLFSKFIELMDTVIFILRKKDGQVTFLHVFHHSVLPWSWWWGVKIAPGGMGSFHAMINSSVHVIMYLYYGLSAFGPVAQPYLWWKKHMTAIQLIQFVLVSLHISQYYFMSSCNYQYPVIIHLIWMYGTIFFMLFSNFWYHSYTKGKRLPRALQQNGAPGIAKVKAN
Procedure: as §2
as §1, with “to the reaction solution,” for “thereto,”, “minutes, followed by centrifugation at 3,000 rpm, and an activity was measured using a Top Count (Packard).” for “minutes.”
as §3

Row | Compound | enhancement of a signal (enzyme activity with the acyl-CoA used as the substrate) [1] | enhancement of a signal (enzyme activity with the acyl-CoA used as the substrate) [2] | enhancement of a signal (enzyme activity with the acyl-CoA used as the substrate) [3]
1 | CCCCCCCCCCCCCCCCCC(=O)SCCNC(=O)CCNC(=O)[C@H](O)C(C)(C)COP(=O)(O)OP(=O)(O)OC[C@H]1O[C@@H](n2cnc3c(N)ncnc32)[C@H](O)[C@@H]1OP(=O)(O)O [stearoyl-CoA] | enhancement of a signal was not observed | specific enhancement of a signal was observed | –
2 | CCCCCCCCCCCCCCCC(=O)SCCNC(=O)CCNC(=O)[C@H](O)C(C)(C)COP(=O)(O)OP(=O)(O)OC[C@H]1O[C@@H](n2cnc3c(N)ncnc32)[C@H](O)[C@@H]1OP(=O)(O)O [palmitoyl-CoA] | specific enhancement of a signal was observed | – | –
3 | CCCCCCCCCCCCCCCCCCCC(=O)SCCNC(=O)CCNC(=O)[C@H](O)C(C)(C)COP(=O)(O)OP(=O)(O)OC[C@H]1O[C@@H](n2cnc3c(N)ncnc32)[C@H](O)[C@@H]1OP(=O)(O)O [arachidoyl-CoA] | – | – | specific enhancement of a signal was observed
4 | CCCCCCCCCCCCCCCCCCCCCCCC(=O)SCCNC(=O)CCNC(=O)[C@H](O)C(C)(C)COP(=O)(O)OP(=O)(O)OC[C@H]1O[C@@H](n2cnc3c(N)ncnc32)[C@H](O)[C@@H]1OP(=O)(O)O [lignoceroyl-CoA] | – | enhancement of a signal was not observed | enhancement of a signal was not observed
